One data set relates to Hepatitis B virus. Kind of data set: Antiviral activity against HBV infected in human HepAD38 cells assessed as inhibition of viral DNA at 10 uM incubated for 4 days by SYBR green dye based RT-PCR analysis relative to control. Particulars: HePAD38, 96 h, time 4 day. The data set is classed as functional.
Data set [1] in a line: Cytotoxicity against human HepG2 cells assessed as cell viability incubated for 72 hrs by MTT assay. In kind it is cell-based.
A short description of data set [2]: Cytotoxicity against human HePAD38 cells assessed as cell viability incubated for 72 hrs by MTT assay. The data set is classed as cell-based. Background: Tetrazolium assays rely on reduction of a dye to a coloured formazan, in cell work by metabolically active cells.

`C=C1/C=C\[C@H](OC(C)=O)[C@@]2(C)[C@@H](OC(C)=O)CC[C@]3(CO3)[C@@H]2[C@H](OC(C)=O)[C@]2(O)[C@@H](C)C(=O)O[C@H]2[C@H]1Cl`: the inhibition at 10 µM in the data set on Hepatitis B virus came to 0%. The CC50 at 72 h in data set [1] and in data set [2] was > 100 µM throughout.
For the compound `CC(=O)OC/C1=C/[C@@H]2OC(=O)[C@H](C)[C@@]2(O)[C@@H](OC(C)=O)[C@H]2[C@]3(CC[C@H](OC(C)=O)[C@]2(C)[C@@H](OC(C)=O)C[C@H]1OC(C)=O)CO3`, the inhibition at 10 µM in the data set with Hepatitis B virus worked out at 0%. Besides, the CC50 at 72 h in data set [1] and in data set [2] was > 100 µM each time.
As for `C=C1[C@@H](OC(C)=O)C[C@H](OC(C)=O)[C@]2(C)[C@@H](OC(C)=O)C[C@@H](OC(C)=O)/C(C)=C\[C@@H]3OC(=O)[C@H](C)[C@@]3(O)[C@@H](OC(C)=O)[C@@H]12`, the inhibition at 10 µM in the data set on Hepatitis B virus turned out to be 0%. For the same compound, the CC50 at 72 h in data set [1] and in data set [2] was > 100 µM throughout.
`CC(=O)OCC(=O)O[C@H]1/C=C\C(COC(C)=O)=C/[C@@H]2OC(=O)[C@H](C)[C@@]2(O)[C@@H](OC(C)=O)[C@H]2[C@]3(CC[C@H](OC(C)=O)[C@]12C)CO3`: the inhibition at 10 µM in the data set with Hepatitis B virus was 0%. Moreover, the CC50 at 72 h in data set [1] and in data set [2] was > 100 µM each time.
On to `C=C1/C=C/[C@H](OC(C)=O)[C@@]2(C)[C@@H](OC(C)=O)C[C@H](OC(C)=O)[C@]3(CO3)[C@@H]2[C@H](OC(C)=O)[C@]2(O)[C@@H](C)C(=O)O[C@H]2[C@H]1Cl`, for which, in the data set with Hepatitis B virus, the inhibition at 10 µM was determined as 1%. For the same compound, the 50% cytotoxic concentration (CC50) at 72 h in data set [1] and in data set [2] was > 100 µM in each case.
`C=C1[C@H](Cl)[C@@H]2OC(=O)[C@H](C)[C@]23O[C@@H]1[C@@H](OC(C)=O)[C@H](OC(C)=O)[C@@]1(C)[C@@H](OC(C)=O)CC[C@]2(CO2)[C@@H]1[C@@H]3OC(C)=O`: the inhibition at 10 µM with Hepatitis B virus stood at 17%. Besides, the CC50 at 72 h in data set [1] and in data set [2] was > 100 µM each time.
In the case of `C=C1CC[C@H](OC(C)=O)[C@]2(C)[C@@H](OC(C)=O)/C=C/[C@]3(CO3)[C@H](Cl)[C@@H]3OC(=O)[C@H](C)[C@@]3(O)[C@@H](OC(C)=O)[C@@H]12`, in the data set on Hepatitis B virus, the inhibition at 10 µM turned out to be 0%. In addition, the CC50 at 72 h in data set [1] and in data set [2] was > 100 µM in each case.
With `C=C1CC[C@H](OC(C)=O)[C@]2(C)[C@@H](OC(C)=O)C[C@@H](OC(C)=O)/C(COC(C)=O)=C\[C@@H]3OC(=O)[C@H](C)[C@@]3(O)[C@@H](OC(C)=O)[C@@H]12`, the inhibition at 10 µM with Hepatitis B virus came out at 0%. The CC50 at 72 h in data set [1] and in data set [2] was > 100 µM throughout.
Take `C=C1/C=C\[C@H](OC(=O)COC(C)=O)[C@@]2(C)[C@@H](OC(C)=O)CC[C@]3(CO3)[C@@H]2[C@H](OC(C)=O)[C@]2(O)[C@@H](C)C(=O)O[C@H]2[C@H]1Cl`: in the data set with Hepatitis B virus, the inhibition at 10 µM was 0%. Moreover, the CC50 at 72 h in data set [1] and in data set [2] was > 100 µM each time.
With `C=C1CC[C@H](OC(C)=O)[C@]2(C)[C@@H](OC(C)=O)C[C@@H](O)/C(C)=C\[C@@H]3OC(=O)[C@H](C)[C@@]3(O)[C@@H](OC(C)=O)[C@@H]12`, in the data set on Hepatitis B virus, the inhibition at 10 µM came to 12%. The CC50 at 72 h in data set [1] and in data set [2] was > 100 µM in each case.
Consider `C=C1CC[C@H](OC(C)=O)[C@]2(C)[C@@H](OC(=O)COC(C)=O)/C=C\C(=C)[C@H](Cl)[C@@H]3OC(=O)[C@H](C)[C@@]3(O)[C@@H](OC(C)=O)[C@@H]12`, for which the inhibition at 10 µM in the data set with Hepatitis B virus amounted to 6%. Also, the CC50 at 72 h in data set [1] and in data set [2] was > 100 µM each time.
With `C=C1CC[C@H](OC(C)=O)[C@]2(C)[C@@H](OC(C)=O)C[C@@H](OC(C)=O)/C(CCl)=C\[C@@H]3OC(=O)[C@H](C)[C@@]3(O)[C@@H](OC(C)=O)[C@@H]12`, in the data set on Hepatitis B virus, the inhibition at 10 µM was 0%. For the same compound, the cytotoxic concentration (CC50) at 72 h in data set [1] and in data set [2] was > 100 µM throughout.
With `C=C1C[C@H](OC(C)=O)[C@H](OC(C)=O)[C@@]2(C)[C@H]1[C@H](OC(C)=O)[C@@]13O[C@@H](C(=C)[C@H](Cl)[C@@H]1OC(=O)[C@@H]3C)[C@@H](O)[C@@H]2OC(C)=O`, the inhibition at 10 µM with Hepatitis B virus is 0%. Also, the CC50 at 72 h in data set [1] and in data set [2] was > 100 µM in each case.
In the case of `C=C1[C@H](OC(C)=O)C[C@H](OC(C)=O)[C@@]2(C)[C@@H](OC(C)=O)CC[C@]3(CO3)[C@@H]2[C@H](OC(C)=O)[C@]2(O)[C@@H](C)C(=O)O[C@H]2[C@H]1Cl`, the inhibition at 10 µM in the data set on Hepatitis B virus came to 39%. The half-maximal cytotoxic concentration (CC50) at 72 h in data set [1] and in data set [2] was > 100 µM throughout.
Regarding `CC(=O)OCC(=O)O[C@H]1/C=C\C(CCl)=C/[C@@H]2OC(=O)[C@H](C)[C@@]2(O)[C@@H](OC(C)=O)[C@H]2[C@@](O)(CCl)CC[C@H](OC(C)=O)[C@]12C`, in the data set with Hepatitis B virus, the inhibition at 10 µM amounted to 58%. The CC50 at 72 h in data set [1] and in data set [2] was > 100 µM throughout.
As for `C=C1[C@H]2O[C@H]2[C@H](OC(C)=O)[C@@]2(C)[C@@H](OC(C)=O)CC[C@]3(CO3)[C@@H]2[C@H](OC(C)=O)[C@]2(O)[C@@H](C)C(=O)O[C@H]2[C@H]1Cl`, the inhibition at 10 µM with Hepatitis B virus stood at 29%. In addition, the CC50 at 72 h in data set [1] and in data set [2] was > 100 µM each time.
As to `C=C1/C=C/[C@H](OC(=O)CC)[C@@]2(C)[C@@H](OC(C)=O)[C@@H](OC(C)=O)C[C@]3(CO3)[C@@H]2[C@H](OC(C)=O)[C@]2(O)[C@@H](C)C(=O)O[C@H]2[C@H]1Cl`, the inhibition at 10 µM in the data set with Hepatitis B virus was 0%. The CC50 at 72 h in data set [1] and in data set [2] was > 100 µM each time.
`CC(=O)O[C@H]1CC[C@]2(CO2)[C@@H]2[C@H](OC(C)=O)[C@@]3(O)[C@H](/C=C(CCl)\C=C/[C@H](OC(=O)COC(=O)CC(C)C)[C@@]12C)OC(=O)[C@@H]3C`: in the data set on Hepatitis B virus, the inhibition at 10 µM was determined as 0%. For the same compound, the cytotoxic concentration (CC50) at 72 h in data set [1] and in data set [2] was > 100 µM throughout.
In the case of `C=C1C[C@H](OC(C)=O)[C@H](OC(C)=O)[C@]2(C)[C@@H](OC(C)=O)/C=C/C(=C)[C@H](Cl)[C@@H]3OC(=O)[C@H](C)[C@@]3(O)[C@@H](OC(C)=O)[C@@H]12` [FRAJUNOLIDE H], the inhibition at 10 µM with Hepatitis B virus is 25%. Also, the CC50 at 72 h in data set [1] and in data set [2] was > 100 µM each time.
`C=C1[C@H](Cl)[C@@H]2OC(=O)[C@H](C)[C@]23O[C@@H]1[C@@H](O)[C@H](OC(C)=O)[C@@]1(C)[C@@H](OC(C)=O)[C@@H](OC(C)=O)C[C@]2(CO2)[C@@H]1[C@@H]3OC(C)=O`: in the data set with Hepatitis B virus, the inhibition at 10 µM was determined as 31%. Also, the CC50 at 72 h in data set [1] and in data set [2] was > 100 µM in each case.
With `C=C1CC[C@H](OC(=O)CC(C)C)[C@]2(C)[C@@H](OC(C)=O)C[C@@H](OC(C)=O)/C(C)=C\[C@@H]3OC(=O)[C@H](C)[C@@]3(O)[C@@H](OC(C)=O)[C@@H]12`, the inhibition at 10 µM in the data set on Hepatitis B virus was found to be 0%. For the same compound, the CC50 at 72 h in data set [1] and in data set [2] was > 100 µM throughout.
As for `C=C1CC[C@H](OC(C)=O)[C@]2(C)[C@@H](OC(C)=O)C[C@@H](OC(C)=O)/C(CO)=C\[C@@H]3OC(=O)[C@H](C)[C@@]3(O)[C@@H](OC(C)=O)[C@@H]12`, the inhibition at 10 µM in the data set with Hepatitis B virus was found to be 0%. Also, the CC50 at 72 h in data set [1] and in data set [2] was > 100 µM each time.
For the compound `C=C1CC[C@H](OC(C)=O)[C@@]2(C)[C@H]1[C@H](OC(C)=O)[C@@]13O[C@@H](C(=C)[C@H](Cl)[C@@H]1OC(=O)[C@@H]3C)[C@@H](O)[C@@H]2OC(C)=O`, the inhibition at 10 µM in the data set with Hepatitis B virus came out at 10%. Besides, the CC50 at 72 h in data set [1] and in data set [2] was > 100 µM each time.
For `C=C1[C@H](Cl)[C@@H]2OC(=O)[C@H](C)[C@]23O[C@]1(O)C[C@H](OC(C)=O)[C@@]1(C)[C@@H](OC(C)=O)CC[C@]2(CO2)[C@@H]1[C@@H]3OC(C)=O`, in the data set on Hepatitis B virus, the inhibition at 10 µM came out at 4%. Further, the CC50 at 72 h in data set [1] and in data set [2] was > 100 µM throughout.
In the case of `C=C1/C=C/[C@H](OC(C)=O)[C@@]2(C)[C@@H](OC(C)=O)[C@@H](OC(C)=O)C[C@]3(CO3)[C@@H]2[C@H](OC(C)=O)[C@]2(O)[C@@H](C)C(=O)O[C@H]2[C@H]1Cl` [FRAJUNOLIDE I], in the data set with Hepatitis B virus, the inhibition at 10 µM is 41%. For the same compound, the CC50 at 72 h in data set [1] and in data set [2] was > 100 µM throughout.
Regarding `C=C1CC[C@H](OC(C)=O)[C@]2(C)[C@@H](OC(C)=O)C[C@@H](OC(C)=O)/C(C(=O)OC)=C\[C@@H]3OC(=O)[C@H](C)[C@@]3(O)[C@@H](OC(C)=O)[C@@H]12`, the inhibition at 10 µM with Hepatitis B virus was determined as 1%. In addition, the CC50 at 72 h in data set [1] and in data set [2] was > 100 µM in each case.
In the case of `C=C1[C@H](Cl)[C@@H]2OC(=O)[C@H](C)[C@]23O[C@@H]1[C@@H](O)[C@H](OC(C)=O)[C@@]1(C)[C@@H](OC(C)=O)CC[C@]2(CO2)[C@@H]1[C@@H]3OC(C)=O`, the inhibition at 10 µM in the data set with Hepatitis B virus was determined as 0%. For the same compound, the CC50 at 72 h in data set [1] and in data set [2] was > 100 µM each time.
For the compound `C=C1CC[C@H](OC(C)=O)[C@]2(C)[C@@H](OC(C)=O)C[C@@H](OC(C)=O)/C(C)=C\[C@@H]3OC(=O)[C@H](C)[C@@]3(O)[C@@H](OC(C)=O)[C@@H]12`, in the data set on Hepatitis B virus, the inhibition at 10 µM stood at 31%. The CC50 at 72 h in data set [1] and in data set [2] was > 100 µM in each case.
In the case of `CC(=O)OCC1=C/[C@@H]2OC(=O)[C@H](C)[C@@]2(O)[C@@H](OC(C)=O)[C@H]2[C@]3(CC[C@H](OC(C)=O)[C@]2(C)[C@@H](OC(C)=O)/C=C\1)CO3`, the inhibition at 10 µM in the data set on Hepatitis B virus was found to be 0%. Also, the CC50 at 72 h in data set [1] and in data set [2] was > 100 µM each time.
As for `C=C1CC[C@H](OC(C)=O)[C@]2(C)[C@@H](OC(C)=O)C[C@@H](OC(C)=O)C(=C)[C@H](Cl)[C@@H]3OC(=O)[C@H](C)[C@@]3(O)[C@@H](OC(C)=O)[C@@H]12`, in the data set on Hepatitis B virus, the inhibition at 10 µM was determined as 63%. Also, the CC50 at 72 h in data set [1] and in data set [2] was > 100 µM each time.
Consider `Nc1ccn([C@@H]2CS[C@H](CO)O2)c(=O)n1` [LAMIVUDINE], for which the inhibition at 10 µM with Hepatitis B virus was 70%.

A word on the inhibition: it is the percentage by which the read-out fell short of the control. By CC50 is commonly meant the concentration that lowers cell viability or growth by half.

(Values after ChEMBL document CHEMBL4725284, “Junceellolide B, a novel inhibitor of Hepatitis B virus” (Bioorg Med Chem, 2020).)
